Test results: patent publication US20230158057A1, “COMPOSITIONS AND METHODS FOR THE TREATMENT OF PAIN” (Duke University, priority 2020, published 2023)

Experiments:
[1] = system: mice with LLC bone cancer pain (BCP); assay: Syngeneic bone cancer pain (BCP) model, i.t. treatment; format: in vivo, mouse
Experimental: Mouse pain models: The chemotherapy-induced peripheral neuropathy (CIPN) model of chronic neuropathic pain was established as we have done previously, using 8-10-week-old CD-1 (strain #022, Charles River) mice injected with paclitaxel (2 mg/kg i.p.) every other day, with 4 injections total. The chronic constriction injury (CCI) model of neuropathic pain was also produced using 8-10-week-old CD-1 under isoflurane anesthesia. Briefly, the right sciatic nerve was exposed above the hip and two ligatures (7-0 Prolene) were placed around the nerve 1 mm apart located proximal to the trifurcation. Ligatures were loosely tied until a subtle flick of the ipsilateral hind limb was observed. CD-1 mice were also used to establish the SNI model, which was generated by tightly ligating the tibial and common peroneal nerves followed by transection and removal of a ˜3 mm portion of the nerve. The sural nerve was left intact and contact or stretching of this nerve was avoided . To establish the syngeneic bone cancer pain (BCP) model, 8-10-week-old C57BL/6J mice (strain #000664, Jackson Labs) were utilized, as the Lewis lung carcinoma cell line LLC1 (LL/2; ATCC CRL-1642) was originally generated in C57BL/6J mice. Mice were anesthetized with isoflurane and the left leg was shaved, disinfected with 10% povidone-iodine, and a 1 cm superficial incision was made to expose the patellar ligament. A 25-gauge needle was inserted at the intercondylar notch of the left femur into the femoral cavity, followed by needle replacement with a 10 μl Hamilton syringe microinjector containing a 2 μl suspension of LLC cells (2×10^5 cells) followed by a 2 μl gelatin sponge solution to enable closure of the injection site. All mice were housed and monitored in accordance with AAALAC standards and Duke IACUC guidelines that pertained to each model.
Reflexive-based sensory testing in mice: All behavioral testing in mice was performed in a specialized humidity- and light-controlled mouse behavior facility maintained at 21-24° C., with testing conducted between the hours of 8:00-16:00. Mice were habituated to the testing environment for at least 2 days prior to baseline testing. All tests were performed by an experimenter who was blinded to experimental conditions, including genotypes and drug treatment. For multi-day experiments using STING agonists, mice were tested in the same room at approximately the same time each day. To measure mechanical sensitivity, mice were confined to individual chambers with non-transparent borders on an elevated mesh rack, preventing mice from visualizing or interacting with one another during the testing period. […] We determined the 50% paw withdrawal threshold using the up-down method. […]

[2] = system: RAW 264.7 cells; assay: In vitro osteoclastogenesis, RANKL-treated RAW 264.7 cells, TRAP staining; format: cell-based, mouse; settings: RANKL 35 ng/ml, 6 days, escalating dose
Experimental: (§1) In vitro induction of osteoclastogenesis and TRAP staining. For in vitro drug treatment, the RAW 264.7 cells were incubated with 35 ng/ml RANKL for six days. Isolated bone marrow cells were cultured overnight in α-MEM media containing 10% fetal bovine serum and 1% antibiotic-antimycotic solution. The suspended cells were collected and incubated with 20 ng/ml MCSF for 3 days to obtain bone marrow-derived macrophage (BMDM). The attached cells were further activated by 35 ng/ml RANKL and 20 ng/ml MCSF. Drug treatment was performed in tandem with RANKL. Culture medium and co-cultured reagents were changed every 3 days. After 6 or 7 days of incubation, the cells were fixed by 4% PFA and stained with warm TRAP staining solution (TRAP kit, Sigma-Aldrich, SLBW4002) for 10-30 min at 37° C.

[3] = system: naïve mice; assay: Naloxone reversal of antinociception; format: in vivo, mouse; settings: naloxone 10 mg/kg i.p.; morphine 2 nmol i.t., DMXAA or ADU-S100 35 nmol i.t.
Experimental: Following naloxone delivery, mice were tested within 15 minutes. For the experiments testing whether mice developed tolerance to the effects of STING agonists, vehicle or DMXAA (35 nmol) were administered via i.t. injection. Naïve mice received five single injections at D0, D3, D6, D9, and D12, with testing each day 4 h after injection. SNI mice received injections on two consecutive days beginning on D7 (D7 and D8) and every 48 h afterwards following the conclusion of sensory testing (D10, D12, D14, D16, and D18). Spinal cords (L4-L5) were collected for analysis of glial cell activation at D21 following SNI.

[4] = system: tumor-bearing femora; assay: Bone fractures of tumor-bearing femora on d17 after LLC inoculation; format: in vivo, mouse; settings: vehicle 87.5%
Experimental: Development and progression of cancer-induced osteolytic bone destruction frequently leads to bone fracture, which is an important component of SREs in patients with bone metastasis and is associated with decreased overall survival. On d17 after LLC inoculation, mice were euthanized and the tumor bearing femora were collected and the distal tumor-bearing femur where bone destruction occurs was analyzed.

[5] = system: IFN-β; assay: IFN-β ELISA in serum and bone marrow lysate after i.p. STING agonist, LLC model; format: in vivo, mouse; settings: for serum IFN-β levels: 4 h after i.p. 20 mg/kg; for IFN-β in bone marrow (BM) lysate: 4 h after i.p., d3
Experimental: (§2) ELISA. Mouse high-sensitivity IFN-α ELISA kit (42115-1) and IFN-β ELISA kit (42410-1) were purchased from PBL Assay Science. Mouse CTX-I ELISA kit (AC-06F1) and mouse PINP ELISA kit (AC-33F1) were purchased from Immunodiagnostic Systems. ELISA was performed using culture medium, serum, and bone marrow lysates. Serum was obtained from whole blood that was collected from a submandibular vein via facial vein puncture, coagulated for 30 minutes at room temperature, followed by centrifugation (2,000 ×g for 10 min, 4° C.) and collection of the supernatant (serum). Bone marrow was homogenized in a lysis buffer containing protease inhibitors at 4° C. for 30 minutes. ELISA was conducted in accordance with the manufacturer's instructions. A standard curve was performed for each experiment.

[6] = system: IFN-β; assay: IFN-β ELISA on BMDM culture medium; format: cell-based, mouse; settings: 24 h after incubation; IFN-β induction much greater
Experimental: as §2
as §1, with “After 6 or 7 days of incubation, the cells were fixed by 4% PFA and stained with warm TRAP staining solution (TRAP kit, Sigma-Aldrich, SLBW4002) for 10-30 min at 37° C.” left out

[7] = system: IFN-α; assay: IFN-α ELISA on BMDM culture medium; format: cell-based, mouse; settings: 24 h after incubation
Experimental: as §2
as §1, with “After 6 or 7 days of incubation, the cells were fixed by 4% PFA and stained with warm TRAP staining solution (TRAP kit, Sigma-Aldrich, SLBW4002) for 10-30 min at 37° C.” left out

[8] = system: bone marrow-derived macrophages (BMDM); assay: In vitro osteoclastogenesis from bone marrow-derived macrophages (BMDM), TRAP staining; format: cell-based, mouse; settings: 30 μM, WT vs STING^gt/gt or Ifnar1^−/−
Experimental: as §1

Row | Compound | cold allodynia [1] | tumor burden [1] | osteoclast differentiation [2] | effect of naloxone on the antinociception of the substance [3] | mice with distal bone fractures [4] | serum IFN-β levels [5] | IFN-β in bone marrow (BM) lysate [5] | IFN-β levels in the culture medium [6] | IFN-α levels in the culture medium [7] | osteoclast formation from BMDM [8]
1 | Nc1ncnc2c1ncn2[C@@H]1O[C@@H]2COP(=O)([S-])O[C@@H]3[C@H](O)[C@@H](COP([O-])(=S)O[C@H]2[C@H]1O)O[C@H]3n1cnc2c(N)ncnc21.[Na+].[Na+] (stereo partly drawn) [ADU-S100, (2′-5′)-[P(R)]-5′-O-[(R)-hydroxymercaptophosphinyl]-P-thioadenylyl-adenosine cyclic dinucleotide] | suppressed cold allodynia | tumor burden was unaffected | dose dependently inhibited osteoclast differentiation | had no effect | 0% | dramatically upregulated | sharply increased | drastic increase in IFN-α and IFN-β levels | drastic increase in IFN-α and IFN-β levels | could significantly inhibit osteoclast formation from BMDM from WT mice but not from STING^gt/gt or Ifnar1^−/− mice
2 | Cc1ccc2c(=O)c3cccc(CC(=O)O)c3oc2c1C [DMXAA, 2-(5,6-dimethyl-9-oxo-9H-xanthen-4-yl)acetic acid] | suppressed cold allodynia | tumor burden was unaffected | dose dependently inhibited osteoclast differentiation | had no effect | 12.5% | dramatically upregulated | sharply increased | drastic increase in IFN-α and IFN-β levels | drastic increase in IFN-α and IFN-β levels | could significantly inhibit osteoclast formation from BMDM from WT mice but not from STING^gt/gt or Ifnar1^−/− mice
